# Measurements reported in patent US20130116231A1, “TYROSINE KINASE INHIBITORS” (Merck Sharp & Dohme Corp., priority 2010, published 2013).
# Target: T1, human c-Met (Homo sapiens, UniProt P08581)
# T1 construct: Recombinant GST-tagged cytosolic domains of human c-Met; 6xHis; made in house; host or cells: Sf9 or Sf21 insect cells (baculovirus)
# Test: in vitro kinase assay (homogeneous time-resolved tyrosine kinase assay, METKA)
# Assay type: biochemical
# Details: recombinant GST-tagged c-Met cytosolic domain, HTRF, 50 μM MgATP; read-out: Biological Activity (METKA IC50) Activity Code
# Summary of the method: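 HTRF assay with GST-tagged cytosolic c-Met domain (0.2 nM), 0.5 μM biotinylated peptide, 50 μM MgATP, pH 7.4, 5% DMSO, 80 min at room temperature; Eu-anti-pTyr/SA-APC detection, IC50 by 4-parameter fit. Other kinases identical except enzyme level: mouse c-Met 0.2, Ron 2.5, KDR 8, IGFR 0.24, EGFR 0.24, FGFR 0.14, Mer 16, TrkA 8, Tie2 8 nM.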
# T1 sequence (P08581 956-1390 limits assumed): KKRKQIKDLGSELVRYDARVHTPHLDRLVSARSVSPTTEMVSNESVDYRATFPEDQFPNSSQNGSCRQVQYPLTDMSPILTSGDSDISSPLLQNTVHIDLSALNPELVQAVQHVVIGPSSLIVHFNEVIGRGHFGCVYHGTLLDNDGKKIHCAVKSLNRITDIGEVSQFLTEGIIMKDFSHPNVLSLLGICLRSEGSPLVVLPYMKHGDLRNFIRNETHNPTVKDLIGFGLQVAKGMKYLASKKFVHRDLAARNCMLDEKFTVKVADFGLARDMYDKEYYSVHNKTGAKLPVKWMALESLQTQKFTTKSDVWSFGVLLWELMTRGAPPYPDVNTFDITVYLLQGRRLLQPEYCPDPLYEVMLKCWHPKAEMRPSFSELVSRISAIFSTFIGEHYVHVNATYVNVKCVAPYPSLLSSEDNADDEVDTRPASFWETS
row,Structure (SMILES),IC50 [nM]
1,"CCn1cc(-n2ccc(=O)c(COc3ccc4ncc(OC5CCOC5)cc4c3)n2)cn1 (stereo not shown) [Example 69, 1-(1-ethyl-1H-pyrazol-4-yl)-3-({[3-(tetrahydrofuran-3-yloxy)quinolin-6-yl]oxy}methyl)pyridazin-4(1H)-one]",< 100
2,"Cn1cc(-n2ccc(=O)c(COc3ccc4ncc(OCC5(C)COC5)cc4c3)n2)cn1 [Example 26, 3-[({3-[(3-methyloxetan-3-yl)methoxy]quinolin-6-yl}oxy)methyl]-1-(1-methyl-1H-pyrazol-4-yl)pyridazin-4(1H)-one]",< 100
3,"CCn1cc(-n2ccc(=O)c(COc3ccc4ncc(OCCOC)cc4c3)n2)cn1 [Example 36, 1-(1-ethyl-1H-pyrazol-4-yl)-3-({[3-(2-methoxyethoxy)quinolin-6-yl]oxy}methyl)pyridazin-4(1H)-one]",< 100
4,"CC(Cc1nn(-c2cnn(C)c2)ccc1=O)c1ccc2ncccc2c1 (single isomer, unassigned) [Example 126, 1-(1-methyl-1H-pyrazol-4-yl)-3-(2-quinolin-6-ylpropyl)pyridazin-4(1H)-one]",100 to 1000
5,"Cn1cc(C(=O)Nc2cccc(OCc3nn(-c4cnn(C)c4)ccc3=O)c2)cn1 [Example 15, 1-Methyl-N-(3-{[1-(1-methyl-1H-pyrazol-4-yl)-4-oxo-1,4-dihydropyridazin-3-yl]methoxy}phenyl)-1H-pyrazole-4-carboxamide]",1000 to 3000
6,"COCCOc1cnc2ccc(CCc3nn(-c4cnn(C)c4)ccc3=O)cc2c1 [Example 57, 3-{2-[3-(2-methoxyethoxy)quinolin-6-yl]ethyl}-1-(1-methyl-1H-pyrazol-4-yl)pyridazin-4(1H)-one]",< 100
7,"CCn1cc(-n2ccc(=O)c(OC(C)c3ccc4nccc(OC)c4c3)n2)cn1 (stereo not shown) [Example 132, 1-(1-ethyl-1H-pyrazol-4-yl)-3-[1-(4-methoxyquinolin-6-yl)ethoxy]pyridazin-4(1H)-one]",< 100
8,"COCCOc1cnc2ccc(OCc3nn(-c4cnn(C)c4)ccc3=O)cc2c1 [Example 24, 3-({[3-(2-methoxyethoxy)quinolin-6-yl]oxy}methyl)-1-(1-methyl-1H-pyrazol-4-yl)pyridazin-4(1H)-one]",< 100
9,"CC(C)COC(=O)Nc1ccc(OCc2nn(-c3cnn(C)c3)ccc2=O)cc1 [Example 123, 2-methylpropyl (4-{[1-(1-methyl-1H-pyrazol-4-yl)-4-oxo-1,4-dihydropyridazin-3-yl]methoxy}phenyl)carbamate]",1000 to 3000
10,"Cn1cc(-n2ccc(=O)c(COc3ccc(N)cc3)n2)cn1 [Example 115, 3-((4-aminophenoxy)methyl)-1-(1-methyl-1H-pyrazol-4-yl)pyridazin-4(1H)-one]",100 to 1000
11,"CCOc1cnc2ccc(CCc3nn(-c4cnn(C)c4)ccc3=O)cc2c1 [Example 58, 3-[2-(3-ethoxyquinolin-6-yl)ethyl]-1-(1-methyl-1H-pyrazol-4-yl)pyridazin-4(1H)-one]",< 100
12,"Cn1cc(-n2ccc(=O)c(COc3ccc4ncc5c(c4c3)OCCO5)n2)cn1 [Example 107, 3-[(2,3-dihydro[1,4]dioxino[2,3-c]quinolin-9-yloxy)methyl]-1-(1-methyl-1H-pyrazol-4-yl)pyridazin-4(1H)-one]",< 100
13,"CCn1cc(-n2ccc(=O)c(COc3ccc4ncc(-c5ccc(N6CCOCC6)nc5)cc4c3)n2)cn1 [Example 87, 1-(1-ethyl-1H-pyrazol-4-yl)-3-({[3-(6-morpholin-4-ylpyridin-3-yl)quinolin-6-yl]oxy}methyl)pyridazin-4(1H)-one]",< 100
14,"CCOC(=O)c1ccc(OCc2nn(-c3cnn(C)c3)ccc2=O)cc1 [Example 12, ethyl 4-{[1-(1-methyl-1H-pyrazol-4-yl)-4-oxo-1,4-dihydropyridazin-3-yl]methoxy}benzoate]",100 to 1000
15,"Cn1cc(-n2ccc(=O)c(COc3ccc4ncc(-c5cnn(C6CN(C(=O)OC(C)(C)C)C6)c5)cc4c3)n2)cn1 [Example 92, tert-Butyl 3-[4-(6-{[1-(1-methyl-1H-pyrazol-4-yl)-4-oxo-1,4-dihydropyridazin-3-yl]methoxy}quinolin-3-yl)-1H-pyrazol-1-yl]azetidine-1-carboxylate]",< 100
16,"COCCOc1cnc2ccc(OCc3nn(-c4cnn(C)c4)ccc3=O)cc2n1 [Example 106, 3-({[3-(2-methoxyethoxy)quinoxalin-6-yl]oxy}methyl)-1-(1-methyl-1H-pyrazol-4-yl)pyridazin-4(1H)-one]",< 100
17,"CCn1cc(-n2ccc(=O)c(COc3ccc4ncc(-c5cnn(CCOC)c5)cc4c3)n2)cn1 [Example 77, 1-(1-ethyl-1H-pyrazol-4-yl)-3-[({3-[1-(2-methoxyethyl)-1H-pyrazol-4-yl]quinolin-6-yl}oxy)methyl]pyridazin-4(1H)-one]",< 100
18,"Cn1cc(-n2ccc(=O)c(COc3ccc(NCCCCO)cc3)n2)cn1 [Example 116, 3-((4-(4-hydroxybutylamino)phenoxy)methyl)-1-(1-methyl-1H-pyrazol-4-yl)pyridazin-4(1H)-one]",1000 to 3000
19,"Cn1cc(-n2ccc(=O)c(NCc3ccc4ncccc4c3)n2)cn1 [Example 147, 1-(1-methyl-1H-pyrazol-4-yl)-3-[(quinolin-6-ylmethyl)amino]pyridazin-4(1H)-one]",100 to 1000
20,"CCn1cc(-n2ccc(=O)c(COc3ccc4ncc(-c5cncnc5)cc4c3)n2)cn1 [Example 85, 1-(1-ethyl-1H-pyrazol-4-yl)-3-{[(3-pyrimidin-5-ylquinolin-6-yl)oxy]methyl}pyridazin-4(1H)-one]",< 100
21,"Cn1cc(-n2ccc(=O)c(COc3ccc4[nH]c(-c5ccccc5)nc4c3)n2)cn1 [Example 19, 1-(1-methyl-1H-pyrazol-4-yl)-3-{[(2-phenyl-1H-benzimidazol-5-yl)oxy]methyl}pyridazin-4(1H)-one]",< 100
22,"COCCOc1cnc2ccc(NCc3nn(-c4cnn(C)c4)ccc3=O)cc2c1 [Example 102, 3-({[3-(2-Methoxyethoxy)quinolin-6-yl]amino}methyl)-1-(1-methyl-1H-pyrazol-4-yl)pyridazin-4(1H)-one]",< 100

# More lines, now with the values ahead:
row,IC50 [nM],Structure (SMILES)
1,< 100,"CCn1cc(-n2ccc(=O)c(COc3ccc4ncc(-c5ccc(C#N)nc5)cc4c3)n2)cn1 [Example 81, 5-(6-{[1-(1-ethyl-1H-pyrazol-4-yl)-4-oxo-1,4-dihydropyridazin-3-yl]methoxy}quinolin-3-yl)pyridine-2-carbonitrile]"
2,< 100,"CCOc1cnc2ccc(OCc3nn(-c4cc(Cl)cc(C#N)c4)ccc3=O)cc2c1 [Example 45, 3-chloro-5-[3-{[(3-ethoxyquinolin-6-yl)oxy]methyl}-4-oxopyridazin-1(4H)-yl]benzonitrile]"
3,< 100,"Cc1cnc2ccc(OCc3nn(-c4cnn(C)c4)ccc3=O)cc2c1 [Example 71, 1-(1-Methyl-1H-pyrazol-4-yl)-3-{[(3-methylquinolin-6-yl)oxy]methyl}pyridazin-4(1H)-one]"
4,< 100,Cn1cc(-c2cnc3ccc(OCc4nn(-c5cnn(C)c5)ccc4=O)cc3c2)cn1 [Example 75]
5,< 100,"O=c1ccn(-c2ccc(F)c(F)c2)nc1COc1ccc2ncccc2c1 [Example 8, 1-(3,4-difluorophenyl)-3-[(quinolin-6-yloxy)methyl] pyridazin-4(1H)-one]"
6,< 100,"Cn1cc(-n2ccc(=O)c(COc3ccc4ncc(N)cc4c3)n2)cn1 [Example 112, 3-{[(3-Aminoquinolin-6-yl)oxy]methyl}-1-(1-methyl-1H-pyrazol-4-yl)pyridazin-4(1H)-one]"
7,< 100,"Cn1cc(-n2ccc(=O)c(COc3ccc4ncc(OC(F)F)cc4c3)n2)cn1 [Example 66, 3-({[3-(difluoromethoxy)quinolin-6-yl]oxy}methyl)-1-(1-methyl-1H-pyrazol-4-yl)pyridazin-4(1H)-one]"
8,1000 to 3000,"Cn1cc(-n2ccc(=O)c(OCc3ccc4ncccc4c3)n2)cn1 [Example 127, 1-(1-Methyl-1H-pyrazol-4-yl)-3-(quinolin-6-ylmethoxy)pyridazin-4(1H)-one]"
9,100 to 1000,"Cn1cc(-n2ccc(=O)c(COc3ccc4ncc(-n5cnnc5)cc4c3)n2)cn1 [Example 39, 1-(1-methyl-1H-pyrazol-4-yl)-3-({[3-(4H-1,2,4-triazol-4-yl)quinolin-6-yl]oxy}methyl)pyridazin-4(1H)-one]"
10,< 100,"N#Cc1cc(F)cc(-n2ccc(=O)c(COc3ccc4ncccc4c3)n2)c1 [Example 4, 3-fluoro-5-{4-oxo-3-[(quinolin-6-yloxy)methyl]pyridazin-1(4H)-yl}benzonitrile]"
11,< 100,"CC(Cc1nn(-c2cnn(C)c2)ccc1=O)c1ccc2ncccc2c1 (single isomer, unassigned) [Example 125, 1-(1-methyl-1H-pyrazol-4-yl)-3-(2-quinolin-6-ylpropyl)pyridazin-4(1H)-one]"
12,1000 to 3000,"Cn1cc(-n2ccc(=O)c(COc3cc(F)c4ncccc4c3)n2)cn1 [Example 32, 3-{[(8-fluoroquinolin-6-yl)oxy]methyl}-1-(1-methyl-1H-pyrazol-4-yl)pyridazin-4(1H)-one]"
13,100 to 1000,"COc1ccc2cc(OCc3nn(-c4cnn(C)c4)ccc3=O)ccc2n1 [Example 49, 3-{[(2-methoxyquinolin-6-yl)oxy]methyl}-1-(1-methyl-1H-pyrazol-4-yl)pyridazin-4(1H)-one]"
14,< 100,"CCn1cc(-n2ccc(=O)c(COc3ccc4ncc(-c5ccccc5)cc4c3)n2)cn1 [Example 91, 1-(1-ethyl-1H-pyrazol-4-yl)-3-{[(3-phenylquinolin-6-yl)oxy]methyl}pyridazin-4(1H)-one]"
15,< 100,"Cn1cc(-n2ccc(=O)c(CSc3ccc4ncccc4c3)n2)cn1 [Example 101, 1-(1-Methyl-1H-pyrazol-4-yl)-3-[(quinolin-6-ylsulfanyl)methyl]pyridazin-4(1H)-one]"
